Target: T1, IL-17A/A (Homo sapiens, UniProt Q16552)
T1 construct: purchased Genscript Z03228
T1 sequence (Q16552 24-155): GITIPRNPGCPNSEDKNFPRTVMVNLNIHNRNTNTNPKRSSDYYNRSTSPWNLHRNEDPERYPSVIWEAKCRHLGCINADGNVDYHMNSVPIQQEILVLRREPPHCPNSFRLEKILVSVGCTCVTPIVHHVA
Assay: HEK-Blue IL-17A/A inhibition assay (SEAP reporter)
Format: cell-based
Conditions: HEK-Blue cells (HEK 293 expressing IL-17RA, IL-17RC, Act1); IL-17A/A stimulation; 20 hours; SEAP read at A630; 4-parameter fit
Procedure: The HEK-Blue #NC108637 […]. Cells were grown and prepared for assays according to the manufacturer's instructions. This cell line consists of HEK 293 cells that were designed to expressed IL-17R^A, IL-17RC, and the ActI adapter molecule, the combination of which. when stimulated by IL-17A/A activates a NFtcB promoter and drives expression of a recombinant Secreted Alkaline Phosphatase (SEAP) geneprotein. Media from the cells is then added to a development reagent (Quanti-Blue Substrate, Fisher #NC971 1613), and read at A630.
Compounds were titrated in DMSO. with a top final compound concentration of 10 uM, 1 uM, or 0.3 uM, and added to the cells immediately before adding IL-17A/A (Genscript #Z03228). The cells, compound, and IL-17A/A were then incubated for 20 hours before media was removed for SEAP analysis. The resulting inhibition curve was then analyzed using Graphpad Prism 7.0, and IC50 values were determined using a 4-parameter nonlinear fit. DMSO was added to a universal final concentration of 0.1% to optimze background.

Row | Structure (SMILES) | IC50 [nM]
1 | C=Cc1cc(NC(=O)[C@@H](NC(=O)c2ccnn2C(C)C)C(C2CC2)C2CC2)c(F)cc1C(C)C(=O)NCC(F)(F)F (mixture of isomers) [Compound 110, N-((2S)-1,1-dicyclopropyl-3-((2-fluoro-4-(1-oxo-1-((2,2,2-trifluoroethyl)amino)propan-2-yl)-5-vinylphenyl)amino)-3-oxopropan-2-yl)-1-isopropyl-1H-pyrazole-5-carboxamide] | < 100
2 | CC(C(=O)NCC(F)(F)F)c1cc(F)c(NC(=O)[C@@H](NC(=O)c2ccnn2C(C)C)C(C2CC2)C2CC2)cc1Br (mixture of isomers) [Compound 113, N-((2S)-1-((5-bromo-2-fluoro-4-(1-oxo-1-((2,2,2-trifluoroethyl)amino)propan-2-yl)phenyl)amino)-3,3-dicyclopropyl-1-oxopropan-2-yl)-1-isopropyl-1H-pyrazole-5-carboxamide] | 100 to 1000
3 | CCn1nccc1C(=O)N[C@H](C(=O)Nc1ccc([C@@H](C)C(=O)N(C)CC(F)(F)F)cc1F)C1CCCCCC1 (single isomer, unassigned) [Compound 3] | 100 to 1000
4 | CCn1nccc1C(=O)N[C@H](C(=O)Nc1ccc([C@H](C)C(=O)N(C)CC(F)(F)F)cc1F)C1CCCCCC1 (single isomer, unassigned) [Compound 4] | < 100
5 | CC(C)n1nccc1C(=O)N[C@H](C(=O)Nc1ccc([C@H](C)C(=O)N2CCOCC2C(F)(F)F)cc1F)C(C1CC1)C1CC1 (single isomer, unassigned) [Compound 18] | < 100
6 | CC(C)n1nccc1C(=O)N[C@H](C(=O)Nc1ccc([C@H](C)C(=O)N2CCOCC2C(F)(F)F)cc1F)C(C1CC1)C1CC1 (single isomer, unassigned) [Compound 19] | 100 to 1000
7 | CC(C)n1nccc1C(=O)N[C@H](C(=O)Nc1ccc([C@H](C)C(=O)N2CCCCC2C(F)(F)F)cc1F)C(C1CC1)C1CC1 (single isomer, unassigned) [Compound 20] | 100 to 1000
8 | CC(C)n1nccc1C(=O)N[C@H](C(=O)Nc1ccc([C@H](C)C(=O)N2CCCCC2C(F)(F)F)cc1F)C(C1CC1)C1CC1 (single isomer, unassigned) [Compound 21] | 100 to 1000
9 | CC(C)n1nccc1C(=O)N[C@H](C(=O)Nc1ccc([C@H](C)C(=O)NC(CO)C(F)(F)F)cc1F)C(C1CC1)C1CC1 (single isomer, unassigned) [Compound 28] | 100 to 1000
10 | CC(C)n1nccc1C(=O)N[C@H](C(=O)Nc1ccc([C@H](C)C(=O)NC(CO)C(F)(F)F)cc1F)C(C1CC1)C1CC1 (single isomer, unassigned) [Compound 29] | < 100
11 | CC(C)n1nccc1C(=O)N[C@H](C(=O)Nc1ccc([C@H](C)C(=O)N2CCOC2C(F)(F)F)cc1F)C(C1CC1)C1CC1 (single isomer, unassigned) [Compound 48] | 100 to 1000
12 | CC(C)n1nccc1C(=O)N[C@H](C(=O)Nc1ccc([C@H](C)C(=O)N2CCOC2C(F)(F)F)cc1F)C(C1CC1)C1CC1 (single isomer, unassigned) [Compound 49] | 100 to 1000
13 | CCN(CC(F)(F)F)C(=O)C(C)c1ccc(NC(=O)[C@@H](NC(=O)c2ccnn2CC)C2CCCCCC2)c(F)c1 (single isomer, unassigned) [Compound 69] | > 1000
14 | CCN(CC(F)(F)F)C(=O)C(C)c1ccc(NC(=O)[C@@H](NC(=O)c2ccnn2CC)C2CCCCCC2)c(F)c1 (single isomer, unassigned) [Compound 70] | 100 to 1000
15 | CCn1nccc1C(=O)N[C@H](C(=O)Nc1cc(C)c(C(C)C(=O)N(C)CC(F)(F)F)cc1F)C(C1CC1)C1CC1 (single isomer, unassigned) [Compound 76] | < 100
16 | CCn1nccc1C(=O)N[C@H](C(=O)Nc1cc(C)c(C(C)C(=O)N(C)CC(F)(F)F)cc1F)C(C1CC1)C1CC1 (single isomer, unassigned) [Compound 77] | 100 to 1000
17 | CCC(C1CCC1)[C@H](NC(=O)c1ccnn1CC)C(=O)Nc1ccc([C@H](C)C(=O)NCC(F)(F)F)cc1F (single isomer, unassigned) [Compound 86] | 100 to 1000
18 | CCC(C1CCC1)[C@H](NC(=O)c1ccnn1CC)C(=O)Nc1ccc([C@H](C)C(=O)NCC(F)(F)F)cc1F (single isomer, unassigned) [Compound 87] | 100 to 1000
19 | CC(CN1CCOCC1)n1nccc1C(=O)N[C@H](C(=O)Nc1ccc([C@H](C)C(=O)NCC(F)(F)F)cc1F)C(C1CC1)C1CC1 (single isomer, unassigned) [Compound 92] | 100 to 1000
20 | CC(CN1CCOCC1)n1nccc1C(=O)N[C@H](C(=O)Nc1ccc([C@H](C)C(=O)NCC(F)(F)F)cc1F)C(C1CC1)C1CC1 (single isomer, unassigned) [Compound 93] | 100 to 1000

Row | Structure (SMILES) | IC50 [nM]
21 | C[C@H](C(=O)NCC(F)(F)F)c1ccc(NC(=O)[C@@H](NC(=O)c2ccnn2C2CCCNC2)C(C2CC2)C2CC2)c(F)c1 (single isomer, unassigned) [Compound 96] | > 1000
22 | C[C@H](C(=O)NCC(F)(F)F)c1ccc(NC(=O)[C@@H](NC(=O)c2ccnn2C2CCCNC2)C(C2CC2)C2CC2)c(F)c1 (single isomer, unassigned) [Compound 97] | > 1000
23 | Cc1cc(NC(=O)[C@@H](NC(=O)c2ccnn2C(C)C)C(C2CC2)C2CC2)c(F)cc1[C@H](C)C(=O)NCC(F)(F)F (single isomer, unassigned) [Compound 98] | < 100
24 | Cc1cc(NC(=O)[C@@H](NC(=O)c2ccnn2C(C)C)C(C2CC2)C2CC2)c(F)cc1[C@@H](C)C(=O)NCC(F)(F)F (single isomer, unassigned) [Compound 99] | > 1000
25 | CCn1nccc1C(=O)N[C@H](C(=O)Nc1ccc(C(COC)C(=O)N(C)CC(F)(F)F)cc1F)C1CCCCCC1 (single isomer, unassigned) [Compound 102, N—((I S)-1-cycloheptyl-2-((2-fluoro-4-(3-methoxy-1-(methyl(2,2,2-trifluoroethyl)amino)-1-oxopropan-2-yl)phenyl)amino)-2-oxoethyl)-1-ethyl-1H-pyrazole-5-carboxamide] | > 1000
26 | CCn1nccc1C(=O)N[C@H](C(=O)Nc1ccc(C(COC)C(=O)N(C)CC(F)(F)F)cc1F)C1CCCCCC1 (single isomer, unassigned) [Compound 103] | < 100
27 | COCC(C(=O)NCC(F)(F)F)c1ccc(NC(=O)[C@@H](NC(=O)c2ccnn2C(C)C)C(C2CC2)C2CC2)c(F)c1 (single isomer, unassigned) [Compound 104] | > 1000
28 | COCC(C(=O)NCC(F)(F)F)c1ccc(NC(=O)[C@@H](NC(=O)c2ccnn2C(C)C)C(C2CC2)C2CC2)c(F)c1 (single isomer, unassigned) [Compound 105] | < 100
29 | CC(C(=O)NCC(F)(F)F)c1cc(F)c(NC(=O)[C@@H](NC(=O)c2ccnn2C(C)C)C(C2CC2)C2CC2)cc1Cl (single isomer, unassigned) [Compound 108] | 100 to 1000
30 | CC(C(=O)NCC(F)(F)F)c1cc(F)c(NC(=O)[C@@H](NC(=O)c2ccnn2C(C)C)C(C2CC2)C2CC2)cc1Cl (single isomer, unassigned) [Compound 109] | 100 to 1000
31 | CC(C(=O)NCC(F)(F)F)c1cc(F)c(NC(=O)[C@@H](NC(=O)c2ccnn2C(C)C)C(C2CC2)C2CC2)cc1C#N (single isomer, unassigned) [Compound 115] | 100 to 1000
32 | CC(C(=O)NCC(F)(F)F)c1cc(F)c(NC(=O)[C@@H](NC(=O)c2ccnn2C(C)C)C(C2CC2)C2CC2)cc1C(N)=O (single isomer, unassigned) [Compound 116] | > 1000
33 | CC(C(=O)NCC(F)(F)F)c1cc(F)c(NC(=O)[C@@H](NC(=O)c2ccnn2C(C)C)C(C2CC2)C2CC2)cc1C(N)=O (single isomer, unassigned) [Compound 117] | 100 to 1000
34 | CC(C(=O)NCC(F)(F)F)c1cc(F)c(NC(=O)[C@@H](NC(=O)c2ccnn2C(C)C)C(C2CC2)C2CC2)cc1C#N (single isomer, unassigned) [Compound 118] | > 1000
35 | CC(C(=O)NCC(F)(F)F)c1cc(F)c(NC(=O)[C@@H](NC(=O)c2ccnn2C(C)C)C(C2CC2)C2CC2)cc1C(F)(F)F (single isomer, unassigned) [Compound 120] | < 100
36 | CC(C(=O)NCC(F)(F)F)c1cc(F)c(NC(=O)[C@@H](NC(=O)c2ccnn2C(C)C)C(C2CC2)C2CC2)cc1C(F)(F)F (single isomer, unassigned) [Compound 121] | > 1000
37 | COc1cc(NC(=O)[C@@H](NC(=O)c2ccnn2C(C)C)C(C2CC2)C2CC2)c(F)cc1C(C)C(=O)NCC(F)(F)F (single isomer, unassigned) [Compound 122] | > 1000
38 | COc1cc(NC(=O)[C@@H](NC(=O)c2ccnn2C(C)C)C(C2CC2)C2CC2)c(F)cc1C(C)C(=O)NCC(F)(F)F (single isomer, unassigned) [Compound 123] | < 100
39 | COCc1cc(NC(=O)[C@@H](NC(=O)c2ccnn2C(C)C)C(C2CC2)C2CC2)c(F)cc1C(C)C(=O)NCC(F)(F)F (single isomer, unassigned) [Compound 124] | < 100
40 | COCc1cc(NC(=O)[C@@H](NC(=O)c2ccnn2C(C)C)C(C2CC2)C2CC2)c(F)cc1C(C)C(=O)NCC(F)(F)F (single isomer, unassigned) [Compound 125] | > 1000
